Reference: patent US6538035B2, “Use of tolterodine to treat asthma” (Pharmacia & Upjohn Company, priority 2000, dated 2003)

How the values were obtained:
chronic COPD = test: treatment of a patient with chronic COPD by inhalation; assay type: in vivo, human; settings: person
Procedure: A person with a history of chronic COPD with FEV1 of 1.5 liters is treated with tolterodine aerosol 1 mg every 12 hr continuously for dyspnea. After two weeks of therapy dyspnea tolerance is improved.
A person with a history of chronic COPD with FEV1/FVC of 60% liters is treated with hydroxytolterodine aerosol 2 mg every 8 hr continuously for dyspnea. After a week of treatment the FEV1/FVC ratio improves to about 65%.

asthma = test: treatment of a patient with asthma by inhalation, morning peak flow; assay type: in vivo, human; settings: person
Procedure: A person with a history of asthma with a morning peak flow of less than 2 l/sec is treated with 2-(diisopropylamino)ethyl-1-phenylcyclopentanecarboxylate powder 0.1 mg every 8 hr continuously. Treatment improves the peak flow to 4-5 l/sec.
A person with a history of severe asthma with a morning peak flow of 5 l/sec is treated with tolterodine powder 6 mg once a day continuously. After a week of treatment the peak flow improves to 9 l/sec.
A person with a history of severe asthma with a morning peak flow of less than 3 l/sec is treated with tolterodine aerosol 2 mg three times daily continuously. After a week of treatment the peak flow improves to 6 l/sec.

Cc1ccc(O)c([C@H](CCN(C(C)C)C(C)C)c2ccccc2)c1 [tolterodine, 2-[(1R)-3-(diisopropylamino)-1-phenylpropyl]-4-methylphenol] was tested, and the dyspnea tolerance (chronic COPD; FEV1 of 1.5 liters, aerosol 1 mg every 12 hr continuously, after two weeks of therapy) was “improved”, the peak flow (asthma; severe asthma, baseline morning peak flow 5 l/sec, powder 6 mg once a day continuously, after a week) was 9 L/s and the peak flow (asthma; severe asthma, baseline morning peak flow less than 3 l/sec, aerosol 2 mg three times daily continuously, after a week) was 6 L/s.
For CC(C)N(CCOC(=O)C1(c2ccccc2)CCCC1)C(C)C [2-(diisopropylamino)ethyl-1-phenylcyclopentanecarboxylate], the peak flow (asthma; asthma, baseline morning peak flow less than 2 l/sec, powder 0.1 mg every 8 hr continuously) was 4 to 5 L/s.
With CC(C)N(CC[C@H](c1ccccc1)c1cc(CO)ccc1O)C(C)C [hydroxytolterodine, 2-[(1R)-3-(diisopropylamino)-1-phenylpropyl]-4-(hydroxymethyl)phenol] the FEV1/FVC ratio (chronic COPD; baseline FEV1/FVC of 60%, aerosol 2 mg every 8 hr continuously, after a week of treatment) was “about 65%”.
